Experimental data published in US8236789B2, “1-adamantyl azetidin-2-one derivatives and drugs containing same” (Kowa Company, Ltd., priority 2008, dated 2012).

Legend:
Type in all cases: biochemical
[1] = target: T1, human 11β-HSD2 (Homo sapiens, UniProt P80365); assay: Enzyme inhibitory activity assay, lysate of HEK293 cells stably expressing human 11β-HSD2, cortisol by competitive ELISA; conditions: Table 1; cell lysate, 100 nmol/L cortisol, NAD+, 37° C. 1 hour; read-out: in vitro assay (IC50 uM) h HSD2
T1 construct: expressed in transfected cells
T1 sequence (P80365 1-405): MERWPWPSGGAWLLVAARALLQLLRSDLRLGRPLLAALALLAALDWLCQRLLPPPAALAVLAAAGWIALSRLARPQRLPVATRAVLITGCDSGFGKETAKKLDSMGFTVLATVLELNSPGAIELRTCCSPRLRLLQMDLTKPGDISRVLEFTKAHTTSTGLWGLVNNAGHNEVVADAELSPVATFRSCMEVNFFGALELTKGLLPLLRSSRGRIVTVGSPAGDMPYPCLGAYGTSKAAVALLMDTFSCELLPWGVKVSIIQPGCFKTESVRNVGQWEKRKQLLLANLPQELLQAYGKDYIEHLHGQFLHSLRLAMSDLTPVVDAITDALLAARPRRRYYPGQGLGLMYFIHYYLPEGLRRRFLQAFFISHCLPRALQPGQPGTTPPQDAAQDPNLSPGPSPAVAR
Description: (§1) 1. Human 11β-HSD1-, Human 11β-HSD2- and Mouse 11β-HSD1-Gene Clonings and Establishment of Stably Expressing Cells
Human 11β-HSD1-, human 11β-HSD2-, and mouse 11β-HSD1-gene clonings were conducted using as a template a reverse transcription product of human-liver RNA, human-kidney RNA (CELL APPLICATIONS), and mouse-kidney RNA respectively, by means of PCR cloning with reference to nucleotide sequences of Genbank Accession Nos. NM_005525, NM_000196, and NM_008288. The obtained PCR products of about 0.9 kbp, 1.2 kbp, and 0.9 kbp were subcloned into an expression vector pcDNA3.1+/Zeo (Invitrogen).
(§2) Human 11β-HSD1- and human 11β-HSD2-expressing vectors were transfected into human kidney-derived cell line, HEK293 cells, using a transfection reagent, jet PEI (Funakoshi). Mouse 11β-HSD1 was transfected to Chinese hamster ovary-derived cell line, CHO-K1 cells. Selection was conducted with 200-400 μg/mL of zeocine (Invitrogen) to provide stably expressing-cell clones. The stably expressing cells were suspended in buffer solution A (20 mmol/L Tris-HCl, pH 7.4, 250 mmol/L sucrose, 1 mmol/L EGTA, 1 mmol/L EDTA, 1 mmol/L MgCl2), sonicated, and then stored at −80° C.
(§3) 2. Assay of Enzyme Inhibitory Activity
(§4) An enzymatic reaction was conducted using a polystyrene 96-well plate. Each well was added with 1 μL of a test agent dissolved in DMSO and then diluted (0.003 to 3 mmol/L), and further added with 10 μL of cell lysate diluted to a concentration of 0.1 mg/mL to 0.4 mg/mL. Next, 90 μL of buffer solution A containing substrate (100 nmol/L cortisone or cortisol) and coenzyme (400 μmol/L NADPH or NAD+) was added and the mixture was incubated at 37° C. for 1 hour. The enzymatic reaction was stopped by treating at 95° C. for 3 minutes. Cortisol that was present in the reaction solution was determined by a competitive ELISA shown below.
Anti-rabbit IgG antibody (Chemi-con) diluted to 2 μg/mL with carbonate buffer solution (pH 9.6) was added in 100 μL each to a 96-well immuno plate (Nunc) and immobilized by an incubation at 4° C. overnight. 50 μL of enzymatic reaction solution was put onto the plates, and further, anti-cortisol antibody (Cosmo Bio) and HRP-labeled cortisol (Cosmo Bio), diluted with buffer solution B (25 mmol/L Tris-HCl pH 7.4, 137 mmol/L NaCl, 2.68 mmol/L KCl), were added in 50 μL respectively and incubated at 4° C. overnight. After washed three times with buffer solution B containing 0.05% Tween 20, the plates were allowed to develop color by adding 100 μL, of color reagent, TMB (Moss). The color reaction was stopped by 25 μL of 1 mol/L sulfuric acid and the absorbance was determined at 450 nm with a microplate reader (Molecular Device, VersaMax).
The values of human 11β-HSD1, human 11β-HSD2, and mouse 11β-HSD1 activities were subtracted from 100, and the resultant values were regarded as the respective 11βHSD inhibition rates of example compounds. […] The comparison of human 11β-HSD1 and human 11β-HSD2 inhibiting activities is shown in Table 1, and the comparison of human 11β-HSD1 and mouse 11β-HSD1 inhibiting activities is shown in Table 2.

[2] = target: T2, mouse 11β-HSD1 (Mus musculus, UniProt P50172); assay: Enzyme inhibitory activity assay, lysate of CHO-K1 cells stably expressing mouse 11β-HSD1, cortisol by competitive ELISA; conditions: Table 2; cell lysate, 100 nmol/L cortisone, NADPH, 37° C. 1 hour; read-out: in vitro assay (IC50 uM) m HSD1
T2 construct: expressed in transfected cells
T2 sequence (P50172 whole entry): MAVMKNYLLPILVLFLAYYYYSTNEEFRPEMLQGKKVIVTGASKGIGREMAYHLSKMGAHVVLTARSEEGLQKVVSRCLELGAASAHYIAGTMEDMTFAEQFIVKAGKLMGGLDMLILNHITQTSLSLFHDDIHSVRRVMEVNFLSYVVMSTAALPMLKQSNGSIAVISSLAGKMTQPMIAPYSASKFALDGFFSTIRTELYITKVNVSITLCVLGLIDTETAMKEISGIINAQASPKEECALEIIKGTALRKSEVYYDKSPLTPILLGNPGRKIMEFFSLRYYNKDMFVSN
Description: as §1, §2, §3, §4
(§5) Anti-rabbit IgG antibody (Chemi-con) diluted to 2 μg/mL with carbonate buffer solution (pH 9.6) was added in 100 μL each to a 96-well immuno plate (Nunc) and immobilized by an incubation at 4° C. overnight. […] After washed three times with buffer solution B containing 0.05% Tween 20, the plates were allowed to develop color by adding 100 μL, of color reagent, TMB (Moss). The color reaction was stopped by 25 μL of 1 mol/L sulfuric acid and the absorbance was determined at 450 nm with a microplate reader (Molecular Device, VersaMax).

[3] = target: T3, human 11β-HSD1 (Homo sapiens, UniProt P28845); assay: Enzyme inhibitory activity assay, lysate of HEK293 cells stably expressing human 11β-HSD1, cortisol by competitive ELISA; conditions: Table 1; cell lysate, 100 nmol/L cortisone, NADPH, 37° C. 1 hour; read-out: in vitro assay (IC50 uM) h HSD1
T3 construct: expressed in transfected cells
T3 sequence (P28845 whole entry): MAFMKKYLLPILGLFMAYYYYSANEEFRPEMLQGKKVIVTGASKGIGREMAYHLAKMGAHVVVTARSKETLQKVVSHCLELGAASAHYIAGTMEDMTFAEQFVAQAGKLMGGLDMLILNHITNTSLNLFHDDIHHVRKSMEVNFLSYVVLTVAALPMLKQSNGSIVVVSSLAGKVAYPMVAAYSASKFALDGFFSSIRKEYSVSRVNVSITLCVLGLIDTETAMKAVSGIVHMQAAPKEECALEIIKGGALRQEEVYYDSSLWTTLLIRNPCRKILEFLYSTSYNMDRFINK
Description: as §1, §2, §3, §4, §5

Structure (SMILES)	IC50 [1] [µM]	IC50 [2] [µM]	IC50 [3] [µM]
CC1(C)C(=O)N(C2C3CC4CC(C3)CC2C4)C1c1ccccc1 (centres unmarked) [Example 1, 1-(adamantan-2-yl)-3,3-dimethyl-4-phenylazetidin-2-one]	3 to 30	0.077	0.013
CC1(C)C(=O)N(C2C3CC4CC(C3)CC2C4)C1c1ccc(Cl)cc1 (centres unmarked) [Example 22, 1-(adamantan-2-yl)-3,3-dimethyl-4-(4-chlorophenyl)azetidin-2-one]	15	0.66	0.0095
COc1ccc(C2N(C3C4CC5CC(C4)CC3C5)C(=O)C2(C)C)cc1 (centres unmarked) [Example 23, 1-(adamantan-2-yl)-3,3-dimethyl-4-(4-methoxyphenyl)azetidin-2-one]	> 30		0.01
CC1(C)C(=O)N(C2C3CC4CC(C3)CC2C4)C1c1cccc(F)c1F (centres unmarked) [Example 24, 1-(adamantan-2-yl)-3,3-dimethyl-4-(2,3-difluorophenyl)azetidin-2-one]	> 30	0.1	0.011
CC1(C)C(=O)N(C2C3CC4CC(C3)CC2C4)C1c1ccc(Cl)c(Cl)c1 (centres unmarked) [Example 26, 1-(adamantan-2-yl)-3,3-dimethyl-4-(3,4-dichlorophenyl)azetidin-2-one]	> 30	0.46	0.013
CC1(C)C(=O)N(C2C3CC4CC(C3)CC2C4)C1c1ccc(F)c(F)c1 (centres unmarked) [Example 27, 1-(adamantan-2-yl)-3,3-dimethyl-4-(3,4-difluorophenyl)azetidin-2-one]	8.8		0.017
CC1(C)C(=O)N(C2C3CC4CC(C3)CC2C4)C1c1ccc(F)c(Cl)c1 (centres unmarked) [Example 29, 1-(adamantan-2-yl)-3,3-dimethyl-4-(3-chloro-4-fluorophenyl)azetidin-2-one]	> 30	0.59	0.011
COc1ccccc1C1N(C2C3CC4CC(C3)CC2C4)C(=O)C1(C)C (centres unmarked) [Example 33, 1-(adamantan-2-yl)-3,3-dimethyl-4-(2-methoxyphenyl)azetidin-2-one]	6.7	0.072	0.0067
CC1(C)C(=O)N(C2C3CC4CC(C3)CC2C4)C1c1cc(F)cc(F)c1F (centres unmarked) [Example 35, 1-(adamantan-2-yl)-3,3-dimethyl-4-(2,3,5-trifluorophenyl)azetidin-2-one]	> 30	0.61	0.053
CC(C)c1ccc(C2N(C3C4CC5CC(C4)CC3C5)C(=O)C2(C)C)cc1 (centres unmarked) [Example 37, 1-(adamantan-2-yl)-3,3-dimethyl-4-(4-isopropylphenyl)azetidin-2-one]	14		0.026
CC(C)(C)c1ccc(C2N(C3C4CC5CC(C4)CC3C5)C(=O)C2(C)C)cc1 (centres unmarked) [Example 38, 1-(adamantan-2-yl)-3,3-dimethyl-4-(4-t-butylphenyl)azetidin-2-one]	3 to 30		0.079
CC1(C)C(=O)N(C2C3CC4CC(C3)CC2C4)C1c1ccccc1F (centres unmarked) [Example 39, 1-(adamantan-2-yl)-3,3-dimethyl-4-(2-fluorophenyl)azetidin-2-one]	3 to 30	0.055	0.0034
COc1ccc(C2N(C3C4CC5CC(C4)CC3C5)C(=O)C2(C)C)c(F)c1 (centres unmarked) [Example 40, 1-(adamantan-2-yl)-3,3-dimethyl-4-(2-fluoro-4-methoxyphenyl)azetidin-2-one]	> 30	0.34	0.0059
CC1(C)C(=O)N(C2C3CC4CC(C3)CC2C4)C1c1ccccc1C(F)(F)F (centres unmarked) [Example 41, 1-(adamantan-2-yl)-3,3-dimethyl-4-(2-trifluoromethylphenyl)azetidin-2-one]	3 to 30	0.079	0.0087
CC1(C)C(=O)N(C2C3CC4CC(C3)CC2C4)C1c1ccccc1Cl (centres unmarked) [Example 44, 1-(adamantan-2-yl)-3,3-dimethyl-4-(2-chlorophenyl)azetidin-2-one]	3 to 30	0.076	0.0055
CC1(C)C(=O)N([C@H]2C3CC4CC2C[C@](O)(C4)C3)C1c1cccc2ccccc12 (stereo partly drawn) [Example 47, trans-1-(5-hydroxyadamantan-2-yl)-3,3-dimethyl-4-(naphthalen-1-yl)azetidin-2-one]		0.0056	0.0075
COc1ccc(C2N([C@H]3C4CC5CC3C[C@](O)(C5)C4)C(=O)C2(C)C)c2ccccc12 (stereo partly drawn) [Example 48, trans-1-(5-hydroxyadamantan-2-yl)-3,3-dimethyl-4-(4-methoxynaphthalen-1-yl)azetidin-2-one]		0.33	0.0088
CC1(C)C(=O)N([C@H]2C3CC4CC2C[C@](F)(C4)C3)C1c1cccc(Cl)c1Cl (stereo partly drawn) [Example 52, trans-1-(5-fluoroadamantan-2-yl)-3,3-dimethyl-4-(2,3-dichlorophenyl)azetidin-2-one]		0.027	0.0046
CC1(C)C(=O)N(C2C3CC4CC(C3)CC2C4)C1c1cccc(Cl)c1 (centres unmarked) [Example 53, 1-(adamantan-2-yl)-3,3-dimethyl-4-(3-chlorophenyl)azetidin-2-one]		0.025	0.0039
CSc1ccc(C2N(C3C4CC5CC(C4)CC3C5)C(=O)C2(C)C)cc1 (centres unmarked) [Example 55, 1-(adamantan-2-yl)-3,3-dimethyl-4-[4-(methylthio)phenyl]azetidin-2-one]		0.87	0.0039
COc1ccc(C2N(C3C4CC5CC(C4)CC3C5)C(=O)C2(C)C)c(C)c1 (centres unmarked) [Example 56, 1-(adamantan-2-yl)-3,3-dimethyl-4-(4-methoxy-2-methylphenyl)azetidin-2-one]	> 30	0.46	0.0079
CC1(C)C(=O)N(C2C3CC4CC(C3)CC2C4)C1c1cccc2c1OCC=CC2 (centres unmarked) [Example 67, 1-(adamantan-2-yl)-4-(2,5-dihydrobenzo[b]oxepin-9-yl)-3,3-dimethylazetidin-2-one]		0.029	0.065
CC1(C)C(=O)N(C2C3CC4CC(C3)CC2C4)C1c1cccc2c1OCCCC2 (centres unmarked) [Example 68, 1-(adamantan-2-yl)-3,3-dimethyl-4-(benzo[b]oxepan-9-yl)azetidin-2-one]	3 to 30	0.02	0.026
CC1(C)C(=O)N(C2C3CC4CC(C3)CC2C4)C1Cc1ccccc1 (centres unmarked) [Example 69, 4-benzyl-1-(adamantan-2-yl)-3,3-dimethylazetidin-2-one]	0.28	0.0051	0.02
